Data on 10 molecules can be found in patent US7271171B2, “Adenosine A3 receptor modulators” (King Pharmaceuticals Research and Development, Inc., priority 1998, dated 2007).

One assay has as its target T1, rA1 adenosine receptor (Rattus norvegicus, UniProt P25099).
T1 construct: membranes of rat brain (150-200 μg- of protein/assay); from tissue; host or cells: whole brain of male Wistar rats
T1 sequence (P25099 1-326): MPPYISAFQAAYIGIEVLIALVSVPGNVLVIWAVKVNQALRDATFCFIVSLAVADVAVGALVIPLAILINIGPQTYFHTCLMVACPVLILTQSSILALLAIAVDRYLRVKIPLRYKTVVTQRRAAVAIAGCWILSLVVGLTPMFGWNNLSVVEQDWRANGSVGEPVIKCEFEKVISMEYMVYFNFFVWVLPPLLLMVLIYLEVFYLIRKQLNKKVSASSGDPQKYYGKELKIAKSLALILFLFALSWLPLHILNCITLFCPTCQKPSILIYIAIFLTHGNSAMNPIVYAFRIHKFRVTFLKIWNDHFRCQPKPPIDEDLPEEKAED
As to the kind of experiment: Rat A1 adenosine receptor binding assay, [3H]CHA displacement, rat brain membranes.

The target in assay [1] is T2, human recombinant A3 adenosine receptor (Homo sapiens, UniProt P0DMS8).
T2 sequence (P0DMS8 1-318): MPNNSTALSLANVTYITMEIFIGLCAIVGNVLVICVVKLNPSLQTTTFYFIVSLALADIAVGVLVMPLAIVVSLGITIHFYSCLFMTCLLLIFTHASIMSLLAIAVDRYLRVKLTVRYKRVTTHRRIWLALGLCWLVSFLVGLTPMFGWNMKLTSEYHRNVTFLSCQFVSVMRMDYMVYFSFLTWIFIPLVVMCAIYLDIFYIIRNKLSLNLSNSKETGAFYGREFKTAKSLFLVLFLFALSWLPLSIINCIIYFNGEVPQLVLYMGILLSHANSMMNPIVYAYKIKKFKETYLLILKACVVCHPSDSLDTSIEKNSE
As to the kind of experiment: Human cloned A3 adenosine receptor binding assay, [125I]AB-MECA, HEK-293 membranes. Also noted: USA; host or cells: HEK-293. The following applies: for Ki: HEK-293 membranes, [125I]AB-MECA, read-out: hA3 (Ki); for rA1/hA3 / rA2A/hA3: selectivity ratio of Ki values.

Another assay addresses T3, rA2A adenosine receptor (Rattus norvegicus, UniProt P30543).
T3 construct: membranes of rat striatum (80-100 μmg of protein/assay); from tissue; host or cells: striatum of male Wistar rats
As to the kind of experiment: Rat A2A adenosine receptor binding assay, [3H]SCH58261 displacement, rat striatum membranes. The following applies: rat striatum membranes, [3H]SCH58261; read-out: rA2A (Ki).

T3 sequence (P30543 whole entry): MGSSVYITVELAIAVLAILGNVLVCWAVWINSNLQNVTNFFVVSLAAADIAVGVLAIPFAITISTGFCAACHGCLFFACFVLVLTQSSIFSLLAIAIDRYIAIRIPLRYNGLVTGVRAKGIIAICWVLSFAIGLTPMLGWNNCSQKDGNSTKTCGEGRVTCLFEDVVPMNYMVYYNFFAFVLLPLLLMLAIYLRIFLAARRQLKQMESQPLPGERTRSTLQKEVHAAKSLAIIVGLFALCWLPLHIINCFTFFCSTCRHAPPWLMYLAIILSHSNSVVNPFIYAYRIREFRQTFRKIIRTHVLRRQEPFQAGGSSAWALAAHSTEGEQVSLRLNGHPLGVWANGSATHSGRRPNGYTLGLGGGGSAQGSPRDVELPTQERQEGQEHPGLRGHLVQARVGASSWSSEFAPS
Procedure for rA1 adenosine receptor: (§1) Male Wistar rats (200-250 g) were decapitated and the whole brain and striatum dissected on ice. […] The homogenate was centrifuged at 48,000 for 10 min, and the pellet was resuspended in the same buffer containing 2 IU/mL adenosine deaminase. After 30 min incubation at 37° C., the membranes were centrifuged and pellets were stored at −80° C. Prior to freezing, an aliquot of homogenate was removed for protein assay with bovine albumin as reference standard. Binding assays were performed on rat brain and striatum membranes respectively, in the presence of 10 mM MgCl2 at 25° C.
(§2) Separation of bound from free radio ligand was performed by rapid filtration through Whatman GF/B filters which were washed three times with ice-cold buffer. Filter bound radioactivity was measured by scintillation spectrometry after addition of 5 mL of Aquassure. […] Ki values were calculated from the Cheng-Prusoff equation. All binding data were analyzed using the nonlinear regression curve-fitting computer program LIGAND.
Procedure for rA2A adenosine receptor: as §1, §2

As for `CCCCn1cc2c(nc(NC(=O)Nc3cccc(Cl)c3)n3nc(-c4ccco4)nc23)n1` [Compound 48, 5-[[(3-Chlorophenyl)amino]carbonyl]amino-8-butyl-2-(2-furyl)-pyrazolo[4,3-e]1,2,4-triazolo[1,5-c]pyrimidine], the Ki (as a rule, a measure of affinity in units of concentration, obtained from inhibition or displacement) on rA1 adenosine receptor worked out at 1520 nM; in assay [1], 0.75 nM; on rA2A adenosine receptor, 498 nM. Besides, in assay [1], the rA1/hA3 is 2,020. For the same molecule, the rA2A/hA3 in assay [1] amounted to 664.
The molecule `CC(C)=CCn1cc2c(nc(N)n3nc(-c4ccco4)nc23)n1` [Compound 39, 5-Amino-8-(2-isopentenyl)-2-(2-furyl)-pyrazolo[4,3-e]1,2,4-triazolo[1,5-c]pyrimidine] came in with a Ki at rA1 adenosine receptor of 10.1 nM. In assay [1], the Ki turned out to be 887 nM, the rA1/hA3 was 0.01 and the rA2A/hA3 was found to be 0.001. The Ki on rA2A adenosine receptor is 1.45 nM.
Regarding `Cn1cc2c(nc(N)n3nc(-c4ccco4)nc23)n1` [Compound 34, 5-Amino-8-methyl-2-(2-furyl)-pyrazolo[4,3-e]1,2,4-triazolo[1,5-c]pyrimidine], in assay [1], the Ki is 557 nM, the rA1/hA3 was 0.56 and the rA2A/hA3 is recorded as 0.05. Further, the Ki at rA2A adenosine receptor came out at 30.6 nM.
As for `O=C(Nc1cccc(Cl)c1)Nc1nc2nn(CCc3ccccc3)cc2c2nc(-c3ccco3)nn12` [Compound 54, 5-[[(3-Chlorophenyl)amino]carbonyl]amino-8-(2-(phenyl)ethyl)-2-(2-furyl)-pyrazolo[4,3-e]1,2,4-triazolo[1,5-c]pyrimidine], the values for the Ki (on rA1 adenosine receptor; in assay [1]; at rA2A adenosine receptor) were 1050 nM, 13.3 nM and 1700 nM, respectively. The rA1/hA3 in assay [1] turned out to be 79. Besides, in assay [1], the rA2A/hA3 is recorded as 128.
On the same counts, the results for `O=C(Nc1cccc(Cl)c1)Nc1nc2nn(CCCc3ccccc3)cc2c2nc(-c3ccco3)nn12` [Compound 56, 5-[[(3-Chlorophenyl)amino]carbonyl]amino-8-(3-(phenyl)propyl)-2-(2-furyl)-pyrazolo[4,3-e]1,2,4-triazolo[1,5-c]pyrimidine] are above 10000 nM, 42.6 nM, 3200 nM, above 234 and 75.
On the same counts, the results for `CCn1cc2c(nc(N)n3nc(-c4ccco4)nc23)n1` [Compound 35, 5-Amino-8-ethyl-2-(2-furyl)-pyrazolo[4,3-e]1,2,4-triazolo[1,5-c]pyrimidine] are 95.1 nM, 3580 nM, 11.2 nM, 0.03 and 0.003.
For `CC(C)CCn1cc2c(nc(N)n3nc(-c4ccco4)nc23)n1` [Compound 38, 5-Amino-8-isopentyl-2-(2-furyl)-pyrazolo[4,3-e]1,2,4-triazolo[1,5-c]pyrimidine], the Ki on rA1 adenosine receptor turned out to be 8.09 nM; in assay [1], 1160 nM. The “affinity at human adenosine A3 receptor subtype (in words)” value in assay [1] (discussion of Table 1) is on record as “low affinity”.
For `CCn1cc2c(nc(NC(=O)Nc3ccc(OC)cc3)n3nc(-c4ccco4)nc23)n1` [Compound 45, 5-[[(4-Methoxyphenyl)amino]carbonyl]amino-8-ethyl-2-(2-furyl)-pyrazolo[4,3-e]1,2,4-triazolo[1,5-]pyrimidine], in assay [1], the Ki was found to be 0.28 nM, the rA1/hA3 is >35,714 and the rA2A/hA3 is recorded as >35,714. In addition, the “affinity and selectivity for the A3 receptor subtype (in words)” value in assay [1] (discussion of Table 1) is “high affinity and selectivity”.
`CCCn1cc2c(nc(NC(=O)Nc3ccc(OC)cc3)n3nc(-c4ccco4)nc23)n1` [Compound 47, 5-[[(4-Methoxyphenyl)amino]carbonyl]amino-8-propyl-2-(2-furyl)-pyrazolo[4,3-e]1,2,4-triazolo[1,5-c]pyrimidine] returned a Ki at rA1 adenosine receptor above 10000 nM.
As for `CCCCn1cc2c(nc(N)n3nc(-c4ccco4)nc23)n1` [Compound 37, 5-Amino-8-butyl-2-(2-furyl)-pyrazolo[4,3-e]1,2,4-triazolo[1,5-c]pyrimidine], affinity on rA1 adenosine receptor was put at a Ki of 26.3 nM. For the same molecule, in assay [1], the Ki amounted to 1110 nM, the rA1/hA3 came out at 0.02 and the rA2A/hA3 turned out to be 0.003.
